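The compound was tested at five concentrations on cells cultured in 96-well plates, with a 48-hour exposure period. GI50 is the concentration that inhibits growth by half. TGI marks complete inhibition of growth.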
Tests used:
Experiment in all cases: inhibition of tumour cell growth, NCI panel, 48 h
PC-3 prostate = tested on: PC-3 prostate
TK-10 renal = tested on: TK-10 renal
UACC-62 melanoma = tested on: UACC-62 melanoma
HS 578T breast = tested on: HS 578T breast
SNB-75 CNS = tested on: SNB-75 CNS
OVCAR-5 ovarian = tested on: OVCAR-5 ovarian
SK-MEL-28 melanoma = tested on: SK-MEL-28 melanoma
M14 melanoma = tested on: M14 melanoma
RXF 393 renal = tested on: RXF 393 renal
KM12 colon = tested on: KM12 colon
SN12C renal = tested on: SN12C renal
786-0 renal = tested on: 786-0 renal
U251 CNS = tested on: U251 CNS
NCI-H226 lung = tested on: NCI-H226 lung
SF-539 CNS = tested on: SF-539 CNS
OVCAR-8 ovarian = tested on: OVCAR-8 ovarian
OVCAR-4 ovarian = tested on: OVCAR-4 ovarian
SR leukemia = tested on: SR leukemia
SK-MEL-5 melanoma = tested on: SK-MEL-5 melanoma
HOP-62 NSCLC = tested on: HOP-62 NSCLC
MALME-3M melanoma = tested on: MALME-3M melanoma
MCF7 breast = tested on: MCF7 breast
SK-MEL-2 melanoma = tested on: SK-MEL-2 melanoma
T-47D breast = tested on: T-47D breast
OVCAR-3 ovarian = tested on: OVCAR-3 ovarian
NCI/ADR-RES ovarian = tested on: NCI/ADR-RES ovarian
SF-295 CNS = tested on: SF-295 CNS
RPMI-8226 leukemia = tested on: RPMI-8226 leukemia
BT-549 breast = tested on: BT-549 breast
MOLT-4 leukemia = tested on: MOLT-4 leukemia
K-562 leukemia = tested on: K-562 leukemia
NCI-H460 lung = tested on: NCI-H460 lung
SK-OV-3 ovarian = tested on: SK-OV-3 ovarian
DU-145 prostate = tested on: DU-145 prostate
CCRF-CEM leukemia = tested on: CCRF-CEM leukemia
SNB-19 CNS = tested on: SNB-19 CNS
NCI-H522 lung = tested on: NCI-H522 lung
HT29 colon = tested on: HT29 colon
IGROV1 ovarian = tested on: IGROV1 ovarian
ACHN renal = tested on: ACHN renal
A498 renal = tested on: A498 renal
HL-60(TB) leukemia = tested on: HL-60(TB) leukemia
HCC-2998 colon = tested on: HCC-2998 colon
MDA-MB-231 breast = tested on: MDA-MB-231 breast
UACC-257 melanoma = tested on: UACC-257 melanoma
HCT-116 colon = tested on: HCT-116 colon
HCT-15 colon = tested on: HCT-15 colon
NCI-H23 lung = tested on: NCI-H23 lung
SF-268 CNS = tested on: SF-268 CNS
MDA-MB-435 = tested on: MDA-MB-435
COLO 205 colon = tested on: COLO 205 colon
A549 NSCLC = tested on: A549 NSCLC
UO-31 renal = tested on: UO-31 renal
SW-620 colon = tested on: SW-620 colon
CAKI-1 renal = tested on: CAKI-1 renal
LOX IMVI melanoma = tested on: LOX IMVI melanoma
EKVX NSCLC = tested on: EKVX NSCLC
HOP-92 NSCLC = tested on: HOP-92 NSCLC

What does the source list for `COc1ccc(/C=C/C(=O)c2cc3c(N)c(C(=O)Nc4cccc(Cl)c4C)sc3nc2C)cc1`?
GI50 (PC-3 prostate): 209 nM; TGI (PC-3 prostate): > 50000 nM; GI50 (TK-10 renal): 965 nM; TGI (TK-10 renal): > 50000 nM; GI50 (UACC-62 melanoma): 267 nM; TGI (UACC-62 melanoma): > 50000 nM; GI50 (HS 578T breast): 173 nM; TGI (HS 578T breast): > 50000 nM; GI50 (SNB-75 CNS): 147 nM; GI50 (OVCAR-5 ovarian): 350 nM; TGI (OVCAR-5 ovarian): > 50000 nM; GI50 (SK-MEL-28 melanoma): 6100 nM; TGI (SK-MEL-28 melanoma): > 50000 nM; GI50 (M14 melanoma): 146 nM; TGI (M14 melanoma): > 50000 nM; GI50 (RXF 393 renal): 102 nM; TGI (RXF 393 renal): 324 nM; GI50 (KM12 colon): 214 nM; TGI (KM12 colon): 6820 nM; GI50 (SN12C renal): 362 nM; TGI (SN12C renal): > 50000 nM; GI50 (786-0 renal): 411 nM; TGI (786-0 renal): > 13600 nM; GI50 (U251 CNS): 201 nM; TGI (U251 CNS): 4360 nM; GI50 (NCI-H226 lung): 372 nM; TGI (NCI-H226 lung): 4750 nM; GI50 (SF-539 CNS): 122 nM; TGI (SF-539 CNS): 324 nM; GI50 (OVCAR-8 ovarian): 244 nM; TGI (OVCAR-8 ovarian): > 50000 nM; GI50 (OVCAR-4 ovarian): 732 nM; TGI (OVCAR-4 ovarian): > 50000 nM; GI50 (SR leukemia): 196 nM; TGI (SR leukemia): > 50000 nM; GI50 (SK-MEL-5 melanoma): 192 nM; TGI (SK-MEL-5 melanoma): 881 nM; GI50 (HOP-62 NSCLC): 288 nM; TGI (HOP-62 NSCLC): > 50000 nM; GI50 (MALME-3M melanoma): 1250 nM; TGI (MALME-3M melanoma): > 50000 nM; GI50 (MCF7 breast): 196 nM; TGI (MCF7 breast): > 50000 nM; GI50 (SK-MEL-2 melanoma): 389 nM; TGI (SK-MEL-2 melanoma): > 50000 nM; GI50 (T-47D breast): 291 nM; TGI (T-47D breast): > 50000 nM; GI50 (OVCAR-3 ovarian): 160 nM; TGI (OVCAR-3 ovarian): 842 nM; GI50 (NCI/ADR-RES ovarian): 127 nM; TGI (NCI/ADR-RES ovarian): 381 nM; GI50 (SF-295 CNS): 295 nM; TGI (SF-295 CNS): > 50000 nM; GI50 (RPMI-8226 leukemia): 187 nM; TGI (RPMI-8226 leukemia): 1490 nM; GI50 (BT-549 breast): 606 nM; TGI (BT-549 breast): 4250 nM; GI50 (MOLT-4 leukemia): 312 nM; TGI (MOLT-4 leukemia): > 50000 nM; GI50 (K-562 leukemia): 181 nM; TGI (K-562 leukemia): > 50000 nM; GI50 (NCI-H460 lung): 190 nM; TGI (NCI-H460 lung): 5040 nM; GI50 (SK-OV-3 ovarian): 300 nM; TGI (SK-OV-3 ovarian): > 50000 nM; GI50 (DU-145 prostate): 218 nM; TGI (DU-145 prostate): > 50000 nM; GI50 (CCRF-CEM leukemia): 205 nM; TGI (CCRF-CEM leukemia): > 35300 nM; GI50 (SNB-19 CNS): 262 nM; TGI (SNB-19 CNS): > 50000 nM; GI50 (NCI-H522 lung): 126 nM; GI50 (HT29 colon): 170 nM; TGI (HT29 colon): > 50000 nM; GI50 (IGROV1 ovarian): 251 nM; TGI (IGROV1 ovarian): > 50000 nM; GI50 (ACHN renal): 330 nM; TGI (ACHN renal): > 50000 nM; GI50 (A498 renal): 174 nM; TGI (A498 renal): 781 nM; GI50 (HL-60(TB) leukemia): 140 nM; TGI (HL-60(TB) leukemia): 460 nM; GI50 (HCC-2998 colon): 350 nM; TGI (HCC-2998 colon): 2920 nM; GI50 (MDA-MB-231 breast): 327 nM; TGI (MDA-MB-231 breast): > 50000 nM; GI50 (UACC-257 melanoma): 6000 nM; TGI (UACC-257 melanoma): > 50000 nM; GI50 (HCT-116 colon): 188 nM; GI50 (HCT-15 colon): 185 nM; TGI (HCT-15 colon): > 50000 nM; GI50 (NCI-H23 lung): 206 nM; GI50 (SF-268 CNS): 680 nM; TGI (SF-268 CNS): > 50000 nM; GI50 (MDA-MB-435): 90.8 nM; TGI (MDA-MB-435): 258 nM; GI50 (COLO 205 colon): 169 nM; TGI (COLO 205 colon): 751 nM; GI50 (A549 NSCLC): 261 nM; TGI (A549 NSCLC): > 50000 nM; GI50 (UO-31 renal): 406 nM; TGI (UO-31 renal): > 25600 nM; GI50 (SW-620 colon): 219 nM; TGI (SW-620 colon): > 50000 nM; GI50 (CAKI-1 renal): 284 nM; TGI (CAKI-1 renal): > 26700 nM; GI50 (LOX IMVI melanoma): 243 nM; TGI (LOX IMVI melanoma): 1250 nM; GI50 (EKVX NSCLC): 384 nM; TGI (EKVX NSCLC): > 50000 nM; GI50 (HOP-92 NSCLC): 876 nM; TGI (HOP-92 NSCLC): 10600 nM

Reference: PubChem BioAssay (NCI)
